Here are results for one compound from ChEMBL document CHEMBL5728462, “Disubstituted compounds for treatment of medical disorders” (2021).

Molecules are shown by their SMILES.

The term IC50 denotes the concentration needed to halve the response being measured.

This experiment deals with Complement factor D (Homo sapiens, UniProt P00746). Put plainly: Human Factor D Assay: Human Factor D (purified from human serum, Complement Technology, Inc.) at 80 nM final concentration is incubated with test compound at various concentrations for 5 minutes at room temperature in 50 mM Tris, 1M NaCl, pH 7.5. A synthetic substrate Z-L-Lys-SBzl and DTNB (Ellman's reagent) are added to final concentrations of 100 μM each. Absorbance at 405 nm (A405) is recorded at 30 second intervals for 30 minutes using a microplate spectrophotometer. IC50 values are calculated by nonlinear regression of complement Factor D reaction rates as a function of test compound concentration.
Sequence of Complement factor D (P00746 whole entry): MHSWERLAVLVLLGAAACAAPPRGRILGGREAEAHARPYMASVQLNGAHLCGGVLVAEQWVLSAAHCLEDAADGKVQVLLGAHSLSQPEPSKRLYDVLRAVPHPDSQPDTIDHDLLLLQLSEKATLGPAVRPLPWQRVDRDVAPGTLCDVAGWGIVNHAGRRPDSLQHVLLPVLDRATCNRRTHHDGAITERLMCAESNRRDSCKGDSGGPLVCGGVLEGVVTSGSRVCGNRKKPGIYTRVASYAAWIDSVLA

For `CC(=O)c1nn(CC(=O)N2C[C@H](F)C[C@H]2C(=O)Nc2cccc(Br)n2)c2ccc(-c3cnc(S(C)(=O)=NC(=O)OC(C)(C)C)nc3)cc12` (stereo partly specified), the half-inhibitory concentration (IC50) was below 1000 nM.
